In patent US10774064B2 (Cadent Therapeutics, Inc., priority 2016, dated 2020):

Molecular target: T1, small-conductance Ca2+-activated K+ channels (SK channels, subtype 2) (Homo sapiens, UniProt Q9H2S1)
T1 construct: expressed in transfected cells; host or cells: HEK293
Test: whole-cell patch-clamp of ionic current through SK2 channels in HEK293 cells (SC100)
Format: cell-based
Settings: concentration that increases the basal current by 100%; HEK293 cells expressing SK2 channels
Procedure, shortened: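 SC100, the concentration doubling basal current (a 100% increase), was taken from SK2 currents recorded by whole-cell patch-clamp in SK2-expressing HEK293 cells.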

Row | SC100 | SMILES
1 | + (+ means >1 uM) | Cc1cn(-c2nc(NC3CCC(F)(F)CC3)cc(N3CCOCC3)n2)nc1C(F)F [Compound 282, N-(4,4-difluorocyclohexyl)-2-(3-(difluoromethyl)-4-methyl-1H-pyrazol-1-yl)-6-morpholinopyrimidin-4-amine]
2 | + (+ means >1 uM) | CC1NC(c2cc(NC3CCC(F)(F)CC3)nc(-n3ccc(CF)n3)n2)=NO1 (stereo not shown) [Compound 331, N-(4,4-difluorocyclohexyl)-2-(3-(fluoromethyl)-1H-pyrazol-1-yl)-6-(5-methyl-4,5-dihydro-1,2,4-oxadiazol-3-yl)pyrimidin-4-amine]
3 | ++ (++ means 200 nM-1000 nM) | Cc1cc(C)n(-c2nc(NC3CCC(F)(F)CC3)cc(N3CCOC(C)C3)n2)n1 (stereo not shown) [Compound 188, N-(4,4-difluorocyclohexyl)-2-(3,5-dimethyl-1H-pyrazol-1-yl)-6-(2-methylmorpholino)pyrimidin-4-amine]
4 | + (+ means >1 uM) | Cc1cc(C)n(-c2cc(N3CCOC(C(N)=O)C3)nc(NC3CCC(F)(F)CC3)n2)n1 (stereo not shown) [Compound 114, 4-(2-((4,4-difluorocyclohexyl)amino)-6-(3,5-dimethyl-1H-pyrazol-1-yl)pyrimidin-4-yl)morpholine-2-carboxamide]
5 | ++ (++ means 200 nM-1000 nM) | Cc1cc(C)n(-c2nc(NC3CCC(F)(F)CC3)cc([C@H](C)O)n2)n1 [Compound 199, (+)1-(6-((4,4-difluorocyclohexyl)amino)-2-(3,5-dimethyl-1H-pyrazol-1-yl)pyrimidin-4-yl)ethan-1-ol]
6 | ++ (++ means 200 nM-1000 nM) | COc1ccc(CNc2cc(NC3CCC(F)(F)CC3)nc(-n3nc(C)cc3C)c2)cc1 [Compound 264, N2-(4,4-difluorocyclohexyl)-6-(3,5-dimethyl-1H-pyrazol-1-yl)-N4-(4-methoxybenzyl)pyridine-2,4-diamine]
7 | ++ (++ means 200 nM-1000 nM) | CC(=O)NCc1cc(NC2CCC(F)(F)CC2)nc(-n2ccc(C(F)F)n2)c1 [Compound 301, N-((2-((4,4-difluorocyclohexyl)amino)-6-(3-(difluoromethyl)-1H-pyrazol-1-yl)pyridin-4-yl)methyl)acetamide]
8 | ++ (++ means 200 nM-1000 nM) | Cc1cc(C)n(-c2cc(C(O)c3ncco3)cc(NC3CCC(F)(F)CC3)n2)n1 (stereo not shown) [Compound 343, (2-((4,4-difluorocyclohexyl)amino)-6-(3,5-dimethyl-1H-pyrazol-1-yl)pyridin-4-yl)(oxazol-2-yl)methanol]
9 | ++ (++ means 200 nM-1000 nM) | Cc1cc(C)n(-c2cc(C(F)(F)F)cc(NC3CCC(F)(F)CC3)n2)n1 [Compound 170, N-(4,4-difluorocyclohexyl)-6-(3,5-dimethyl-1H-pyrazol-1-yl)-4-(trifluoromethyl)pyridin-2-amine]
10 | ++ (++ means 200 nM-1000 nM) | FC1(F)CCC(Nc2cc(N3CCOCC3)nc(-n3ccc(C4CC4)n3)n2)CC1 [Compound 365, 2-(3-cyclopropyl-1H-pyrazol-1-yl)-N-(4,4-difluorocyclohexyl)-6-morpholinopyrimidin-4-amine]
11 | + (+ means >1 uM) | COc1cccc(-c2nc(C)cc(NC3CCC(F)(F)CC3)n2)n1 [Compound 219, N-(4,4-difluorocyclohexyl)-2-(6-methoxypyridin-2-yl)-6-methylpyrimidin-4-amine]
12 | ++ (++ means 200 nM-1000 nM) | FC(F)c1csc(-c2nc(NC3CCC(F)(F)CC3)cc(N3CCOCC3)n2)n1 [Compound 339, N-(4,4-difluorocyclohexyl)-2-(4-(difluoromethyl)thiazol-2-yl)-6-morpholinopyrimidin-4-amine]
13 | ++ (++ means 200 nM-1000 nM) | Cc1cc(C)n(-c2nc(CO)cc(NC3CCC(F)(F)C3)n2)n1 (stereo not shown) [Compound 192, (6-((3,3-difluorocyclopentyl)amino)-2-(3,5-dimethyl-1H-pyrazol-1-yl)pyrimidin-4-yl)methanol]

Same assay, conditions: whole-cell patch-clamp, HEK293 cells expressing SK2 channels; concentration that increases the basal current by 100%

Row | SC100 (μM) | SMILES
14 | + (+ means >1 uM) | CC(=O)c1cc(NC2CCCCC2(F)F)nc(-c2nc(C)cs2)n1 (stereo not shown) [IN11140-081-P1, 1-(6-((2,2-difluorocyclohexyl)amino)-2-(4-methylthiazol-2-yl)pyrimidin-4-yl) ethan-1-one]
15 | + (+ means >1 uM) | Cc1ccn(-c2nc(NCC3CCOC3)cc(C(C)O)n2)n1 (stereo not shown) [IN10880-058-P1]
16 | + (+ means >1 uM) | COC(C)c1cc(-c2nc(C)cs2)nc(NC2CCC(F)(F)CC2)n1 (stereo not shown) [NSSy6697, N-(4,4-difluorocyclohexyl)-4-(1-methoxyethyl)-6-(4-methylthiazol-2-yl)pyrimidin-2-amine]
17 | +++ (+++ means <200 nM) | COC(=O)N1CCC(c2cc(NC3CCC(F)(F)CC3)nc(-n3ccc(C)n3)n2)CC1 [NSSy6982]
18 | + (+ means >1 uM) | COC1CCC(Nc2cc(N3CCOCC3)nc(-n3ccc(C)n3)n2)CC1 (stereo not shown) [NSSy6529, N-(4-methoxycyclohexyl)-2-(3-methyl-1H-pyrazol-1-yl)-6-morpholinopyrimidin-4-amine]
19 | + (+ means >1 uM) | Cc1ccn(-c2cc(N)nc(NC3CCC(F)(F)CC3)n2)n1 [NSSy6698, N2-(4,4-difluorocyclohexyl)-6-(3-methyl-1H-pyrazol-1-yl)pyrimidine-2,4-diamine]
20 | + (+ means >1 uM) | Cc1csc(-c2nc(NC3CCC(F)(F)CC3)cc(OC(C)C)n2)n1 [IN11055-016-P1]
21 | + (+ means >1 uM) | Cc1cc(C)n(-c2nc(NC3CCC(F)(F)CC3)cc(S(C)(=O)=O)n2)n1 [IN11067-061-P1]
22 | ++ (++ means 200 nM-1000 nM) | Cc1csc(-c2nc(NC3CCC(F)(F)CC3)cc(OC3CCCn4nncc43)n2)n1 (stereo not shown) [NSSy6007]
23 | + (+ means >1 uM) | [2H]c1c(NC2CCC(F)(F)CC2)nc(-c2nc(C)cs2)nc1OC1CN(C(=O)OC)C1 [NSSy6045, methyl 3-((6-((4,4-difluorocyclohexyl)amino)-2-(4-methylthiazol-2-yl)pyrimidin-4-yl-5-d)oxy) azetidine-1-carboxylate]
24 | + (+ means >1 uM) | COC(=O)N1CC(Oc2cc(NC3CCC(F)(F)CC3)nc(-c3nc(C)no3)n2)C1 [NSSy5887, methyl 3-((6-((4,4-difluorocyclohexyl)amino)-2-(3-methyl-1,2,4-oxadiazol-5-yl)pyrimidin-4-yl)oxy)azetidine-1-carboxylate]
25 | ++ (++ means 200 nM-1000 nM) | COCc1cc(NC2CCC(F)(F)CC2)nc(-c2nc(C)cs2)n1 [NSSy5779, N-(4,4-difluorocyclohexyl)-6-(methoxymethyl)-2-(4-methylthiazol-2-yl)pyrimidin-4-amine]
26 | ++ (++ means 200 nM-1000 nM) | COC(=O)NCCOc1nc(-c2nc(C)cs2)nc(NC2CCC(F)(F)CC2)c1OC [IN11104-041-P1]
27 | + (+ means >1 uM) | COC(C)c1cc(NC2CCC(F)(F)CC2)nc(-n2ccc(C3CC3)n2)n1 (stereo not shown) [IN11196-026-P1, 2-(3-cyclopropyl-1H-pyrazol-1-yl)-N-(4,4-difluorocyclohexyl)-6-(1-methoxyethyl)pyrimidin-4-amine]
28 | ++ (++ means 200 nM-1000 nM) | COc1cc(NC2CCC(F)(F)CC2)nc(-n2nc(C)c(F)c2C)n1 [NSSy7062]
29 | + (+ means >1 uM) | OC(c1cc(NC2CCC(F)(F)CC2)nc(-n2ccc(C3CC3)n2)n1)C(F)(F)F (stereo not shown) [IN11217-068-P1, 1-(2-(3-cyclopropyl-1H-pyrazol-1-yl)-6-((4,4-difluorocyclohexyl)amino)pyrimidin-4-yl)-2,2,2-trifluoroethan-1-ol]
30 | + (+ means >1 uM) | Cc1ccn(-c2cc(CO)cc(N(C(N)=O)C3CCC(F)(F)CC3)n2)n1 [NSSy6812, 1-(4,4-difluorocyclohexyl)-1-(4-(hydroxymethyl)-6-(3-methyl-1H-pyrazol-1-yl)pyridin-2-yl) urea]
31 | ++ (++ means 200 nM-1000 nM) | Cc1cc(C)n(-c2cc(N3CCOCC3)cc(NC3CCC(F)(F)CC3)n2)n1 [IN10991-044-P1, N-(4,4-difluorocyclohexyl)-6-(3,5-dimethyl-1H-pyrazol-1-yl)-4-morpholinopyridin-2-amine]
32 | + (+ means >1 uM) | COC(=O)NC(C)(C)c1cc(NC2CCC(F)(F)CC2)nc(-n2ccc(C)n2)c1 [IN11063-030-P1, methyl (2-(2-((4,4-difluorocyclohexyl)amino)-6-(3-methyl-1H-pyrazol-1-yl)pyridin-4-yl)propan-2-yl)carbamate]
33 | + (+ means >1 uM) | COc1cc(NC2CC3CCC2C3)nc(-c2nc(C)cs2)n1 (stereo not shown) [IN11055-087-P1]
34 | ++ (++ means 200 nM-1000 nM) | CC(C)C(=O)NCc1cc(NC2CCC(F)(F)CC2)nc(-n2ccc(CF)n2)c1 [NSSy5620, N-((2-((4,4-difluorocyclohexyl)amino)-6-(3-(fluoromethyl)-1H-pyrazol-1-yl)pyridin-4-yl)methyl)isobutyramide]
35 | ++ (++ means 200 nM-1000 nM) | COC(=O)NCCOc1cc(NC2CCC(F)(F)CC2)nc(-c2nc(C)cs2)n1 [IN11039-009-P1]
36 | + (+ means >1 uM) | Cc1cc(C)n(-c2ncc(N3CCOCC3)c(NC3CCC(F)(F)CC3)n2)n1 [IN10966-011-P1, N-(4,4-difluorocyclohexyl)-2-(3,5-dimethyl-1H-pyrazol-1-yl)-5-morpholinopyrimidin-4-amine]
37 | + (+ means >1 uM) | CC(=O)N1CCN(c2cc(-n3nccc3C3CC3)nc(NC3CCC(F)(F)CC3)n2)CC1 [NSSy6957, 1-(4-(6-(5-cyclopropyl-1H-pyrazol-1-yl)-2-((4,4-difluorocyclohexyl)amino)pyrimidin-4-yl)piperazin-1-yl)ethan-1-one]
38 | + (+ means >1 uM) | COC(=O)N1CC(Oc2cc(NC3CCC(F)(F)CC3)cc(-c3nc(C)cs3)c2)C1 [NSSy5972, methyl 3-(3-((4,4-difluorocyclohexyl)amino)-5-(4-methylthiazol-2-yl)phenoxy) azetidine-1-carboxylate]

Row | SMILES | SC100 (μM)
39 | COC[C@H]1CN(c2cc(NC3CCCCC3)nc(-c3nc(C)cs3)n2)CCO1 [NSSy6115] | ++ (++ means 200 nM-1000 nM)
40 | Cc1csc(-c2nc(NC3CCCCC3)cc(N3CCS(=O)(=O)CC3)n2)n1 [NSSy6131] | +++ (+++ means <200 nM)
